Reference: ChEMBL document CHEMBL3627636, “Novel bivalent inhibitors with sub-nanomolar affinities towards human glyoxalase I” (Bioorg Med Chem Lett, 2015)
≈ marks a conversion by molar mass, not a printed value.

Legend:
Lactoylglutathione lyase [1] = biological target: T1, Lactoylglutathione lyase (Homo sapiens, UniProt Q04760); experiment: Inhibition of 6-His tagged recombinant human glyoxalase 1 transfected in Escherichia coli BL21 (DE3) assessed as S-D-lactoylglutathione formation by spectrophotometer
[2] = Inhibition of yeast glyoxalase 1; design: species or system Saccharomyces cerevisiae
[3] = biological target: Hydroxyacylglutathione hydrolase, mitochondrial (Bos taurus, UniProt Q3B7M2); experiment: Inhibition of bovine liver glyoxalase 2
[4] = Solubility of compound; type: physicochemical
Lactoylglutathione lyase [5] = biological target: T1, Lactoylglutathione lyase; experiment: Inhibition of human glyoxalase 1

T1 sequence (Q04760 whole entry): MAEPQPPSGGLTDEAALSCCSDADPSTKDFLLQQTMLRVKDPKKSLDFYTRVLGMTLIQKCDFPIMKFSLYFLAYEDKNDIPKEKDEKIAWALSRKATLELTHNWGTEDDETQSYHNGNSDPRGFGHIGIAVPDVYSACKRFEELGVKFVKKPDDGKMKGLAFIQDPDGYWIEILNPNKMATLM

Row | SMILES | Ki (Lactoylglutathione lyase [1]) | Ki [2] | Ki [3] | solubility [4] | Ki (Lactoylglutathione lyase [5])
1 | NCCC(=O)NC(CCC(=O)NC(CSC(=O)N(O)c1ccc(Cl)cc1)C(=O)NCC(=O)O)C(=O)O (stereo unspecified) |  |  |  |  | 330 nM
2 | CC(=O)CNC(CCC(=O)NC(CSC(=O)N(O)c1ccc(Cl)cc1)C(=O)NCC(=O)O)C(=O)O (stereo unspecified) |  |  |  |  | 130 nM

Results, then the compound that gave them:

Row | Ki (Lactoylglutathione lyase [1]) | Ki [2] | Ki [3] | solubility [4] | Ki (Lactoylglutathione lyase [5]) | SMILES
3 | 1 nM | 6900 nM | 138 nM | 26 mg/mL (≈ 12.8 mM) |  | O=C(O)CNC(=O)C(CSC(=O)N(O)c1ccc(Br)cc1)NC(=O)CCC(NCCC(=O)OCCOCCOCCOCCNC(=O)CCCCCCC(=O)NCCCOCCOCCOCCCNC(=O)CCCCCCC(=O)NCCOCCOCCOCCOC(=O)CCNC(CCC(=O)NC(CSC(=O)N(O)c1ccc(Br)cc1)C(=O)NCC(=O)O)C(=O)O)C(=O)O (stereo unspecified)
4 | 0.3 nM | 3700 nM | 81 nM | 32 mg/mL (≈ 19.9 mM) |  | O=C(O)CNC(=O)C(CSC(=O)N(O)c1ccc(Br)cc1)NC(=O)CCC(NCCC(=O)OCCNC(=O)CCNC(=O)CC(=O)NCCNC(=O)CC(=O)NCCC(=O)NCCOC(=O)CCNC(CCC(=O)NC(CSC(=O)N(O)c1ccc(Br)cc1)C(=O)NCC(=O)O)C(=O)O)C(=O)O (stereo unspecified)
5 |  |  |  |  | 46 nM | CCOC(=O)CCNC(CCC(=O)NC(CSC(=O)N(O)c1ccc(Cl)cc1)C(=O)NCC(=O)O)C(=O)O (stereo unspecified)
